Test results reported in US9365562B2, “1,3 substituted azetidine PDE10 inhibitors” (Merck Sharp & Dohme Corp., priority 2011, dated 2016).

Target: human PDE10A2 (Homo sapiens (Human), UniProt Q9Y233)
Experiment: PDE10 fluorescence polarization (IMAP FP) inhibition assay
Format: biochemical
Settings: apparent inhibition constant, FAM-labeled cAMP substrate 50 nM, room temperature
Summary of the method: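 Cytoplasmic lysate of AD293 cells transiently expressing human PDE10A2, enzyme preincubated 60 min at room temperature with compounds (1% DMSO), then 50 nM FAM-cAMP added for 60 min. Buffer 10 mM Tris HCl pH 7.2, 10 mM MgCl2, 1 mM DTT; IMAP binding reagent stop, FP read after ≥1 h.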

Sequence of human PDE10A2 (Q9Y233 267-1055): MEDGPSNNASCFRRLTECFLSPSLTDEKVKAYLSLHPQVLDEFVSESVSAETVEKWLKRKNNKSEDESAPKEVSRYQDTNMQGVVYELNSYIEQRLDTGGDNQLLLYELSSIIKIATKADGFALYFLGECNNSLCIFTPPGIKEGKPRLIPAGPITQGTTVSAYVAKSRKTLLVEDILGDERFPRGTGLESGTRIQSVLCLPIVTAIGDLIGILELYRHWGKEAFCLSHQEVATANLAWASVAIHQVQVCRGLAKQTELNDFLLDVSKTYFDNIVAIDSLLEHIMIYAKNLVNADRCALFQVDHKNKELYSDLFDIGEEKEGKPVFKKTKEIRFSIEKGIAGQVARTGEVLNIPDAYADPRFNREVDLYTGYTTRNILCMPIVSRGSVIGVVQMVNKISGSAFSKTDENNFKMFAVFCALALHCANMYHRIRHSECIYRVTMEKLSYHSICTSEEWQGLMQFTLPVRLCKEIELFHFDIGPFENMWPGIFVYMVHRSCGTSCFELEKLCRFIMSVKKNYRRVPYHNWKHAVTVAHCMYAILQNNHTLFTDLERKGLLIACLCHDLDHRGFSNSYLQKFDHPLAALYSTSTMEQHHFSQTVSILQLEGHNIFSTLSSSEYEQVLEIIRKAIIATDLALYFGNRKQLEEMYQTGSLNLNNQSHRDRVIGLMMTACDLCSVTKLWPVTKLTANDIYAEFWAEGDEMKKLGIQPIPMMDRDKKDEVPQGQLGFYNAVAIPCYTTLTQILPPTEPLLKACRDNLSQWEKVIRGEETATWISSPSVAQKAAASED

| Structure (SMILES) | Ki [nM] |
| --- | --- |
| Cc1nc(C)n(-c2cc(N3CC(c4nc5ccccc5n4C)C3)nc(OCc3ccnn3C)n2)n1 [Example 73, 2-(1-(6-(3,5-dimethyl-1H-1,2,4-triazol-1-yl)-2-((1-methyl-1H-pyrazol-5-yl)methoxy)pyrimidin-4-yl)azetidin-3-yl)-1-methyl-1H-benzo[d]imidazole] | 0.13 |
| Cc1nc(N2CC(c3nc4cccc(F)c4[nH]3)C2)cc(-n2nc(C)nc2C)n1 [Example 108, 2-(1-(6-(3,5-dimethyl-1H-1,2,4-triazol-1-yl)-2-methylpyrimidin-4-yl)azetidin-3-yl)-7-fluoro-1H-benzo[d]imidazole] | 19 |
| COCc1nc(C)nn1-c1cc(N2CC(c3nc4ccccc4n3C)C2)nc(C(F)(F)F)n1 [Example 66, 2-(1-(6-(5-(methoxymethyl)-3-methyl-1H-1,2,4-triazol-1-yl)-2-(trifluoromethyl)pyrimidin-4-yl)azetidin-3-yl)-1-methyl-1H-benzo[d]imidazole] | 0.94 |
| Cc1nc(C2CC2)n(-c2cc(N3CC(c4nc5ccccc5n4C)C3)nc(C(F)(F)F)n2)n1 [Example 68, 2-(1-(6-(5-cyclopropyl-3-methyl-1H-1,2,4-triazol-1-yl)-2-(trifluoromethyl)pyrimidin-4-yl)azetidin-3-yl)-1-methyl-1H-benzo[d]imidazole] | 1.4 |
| Cc1nc(-c2ccccc2C(=O)O)cc(N2CC(c3nc4ccccc4n3C)C2)n1 [Example 93, 2-(2-methyl-6-(3-(1-methyl-1H-benzo[d]imidazol-2-yl)azetidin-1-yl)pyrimidin-4-yl)benzoic acid] | 19 |
| Cc1nc(C)n(-c2cc(N3CC(c4nc5ccccc5n4C)C3)nc(N3CCCC3)n2)n1 [Example 78, 2-{1-[6-(3,5-dimethyl-1H-1,2,4-triazol-1-yl)-2-(pyrrolidin-1-yl)pyrimidin-4-yl]azetidin-3-yl}-1-methyl-1H-benzimidazole] | 0.29 |
| Cc1nc(N2CC(c3nc4ccccc4n3C)C2)cc(-n2nc(C)nc2Cc2ccc(F)cc2)n1 [Example 58, 2-(1-(6-(5-(4-fluorobenzyl)-3-methyl-1H-1,2,4-triazol-1-yl)-2-methylpyrimidin-4-yl)azetidin-3-yl)-1-methyl-1H-benzo[d]imidazole] | 0.12 |
| COc1cccnc1-c1cc(N2CC(c3nc4ccccc4n3C)C2)nc(C)n1 [Example 100, 2-(1-(6-(3-methoxypyridin-2-yl)-2-methylpyrimidin-4-yl)azetidin-3-yl)-1-methyl-1H-benzo[d]imidazole] | 41 |

Second part, the compound after the results:

| Ki [nM] | Structure (SMILES) |
| --- | --- |
| 1.2 | Cc1nc(N2CC(c3nc4ccccc4n3C)C2)cc(-n2nc(C)nc2-c2ccccc2F)n1 [Example 51, 2-(1-(6-(5-(2-fluorophenyl)-3-methyl-1H-1,2,4-triazol-1-yl)-2-methylpyrimidin-4-yl)azetidin-3-yl)-1-methyl-1H-benzo[d]imidazole] |
| 0.61 | Cc1nc(C)n(-c2cc(N3CC(c4nc5ccccc5n4C)C3)nc(-n3cccn3)n2)n1 [Example 76, 2-(1-(6-(3,5-dimethyl-1H-1,2,4-triazol-1-yl)-2-(1H-pyrazol-1-yl)pyrimidin-4-yl)azetidin-3-yl)-1-methyl-1H-benzo[d]imidazole] |
| 1.7 | Cc1cnn(-c2cc(N3CC(c4nc5ccccc5n4C)C3)nc(C)n2)n1 [Example 28, 1-methyl-2-(1-(2-methyl-6-(4-methyl-2H-1,2,3-triazol-2-yl)pyrimidin-4-yl)azetidin-3-yl)-1H-benzo[d]imidazole] |
| 5.9 | CCn1c(C2CN(c3cc(-n4nc(C)nc4C)nc(C)n3)C2)nc2ccccc21 [Example 114, 2-(1-(6-(3,5-Dimethyl-1H-1,2,4-triazol-1-yl)-2-methylpyrimidin-4-yl)azetidin-3-yl)-1-ethyl-1H-benzo[d]imidazole] |
| 4.7 | COc1ccn(-c2cc(N3CC(c4nc5ccccc5n4C)C3)nc(C)n2)n1 [Example 12, 2-(1-(6-(3-methoxy-1H-pyrazol-1-yl)-2-methylpyrimidin-4-yl)azetidin-3-yl)-1-methyl-1H-benzo[d]imidazole] |
| 1.2 | Cc1cnn(-c2cc(N3CC(c4nc5ccccc5n4C)C3)nc(C(F)(F)F)n2)n1 [Example 31, 1-methyl-2-(1-(6-(4-methyl-2H-1,2,3-triazol-2-yl)-2-(trifluoromethyl)pyrimidin-4-yl)azetidin-3-yl)-1H-benzo[d]imidazole] |
| 11 | Cc1nc(-c2cccnn2)cc(N2CC(c3nc4ccccc4n3C)C2)n1 [Example 106, 1-methyl-2-{1-[2-methyl-6-(pyridazin-3-yl)pyrimidin-4-yl]azetidin-3-yl}-1H-benzimidazole] |
| 4 | Cc1cc(C(F)(F)F)n(-c2cc(N3CC(c4nc5ccccc5n4C)C3)nc(C)n2)n1 [Example 10, 1-methyl-2-(1-(2-methyl-6-(3-methyl-5-(trifluoromethyl)-1H-pyrazol-1-yl)pyrimidin-4-yl)azetidin-3-yl)-1H-benzo[d]imidazole] |
| 6.2 | Cc1nc(N2CC(c3nc4ccccc4n3CCF)C2)cc(-n2nc(C)nc2C)n1 [Example 116, 2-(1-(6-(3,5-dimethyl-1H-1,2,4-triazol-1-yl)-2-methylpyrimidin-4-yl)azetidin-3-yl)-1-(2-fluoroethyl)-1H-benzo[d]imidazole] |
